# Test results reported in patent US20100130585A1, “METHODS AND COMPOSITIONS FOR INVESTIGATION AND TREATMENT OF CANCER USING A G-PROTEIN COUPLED EICOSANOID RECEPTOR” (priority 2005, published 2010).
# “Also recorded” adds a separate entry of the source.
# What was measured:
# [1] = test system: 5-LOX; experiment: Production of 5-oxoETE in PC3 cells measured by LC/MS; format: cell-based, human; details: 10 micromolar, two hours at 37 degree C, control cells 11 picograms per ml
# Description: We also measured the production of 5-oxoETE in PC3 prostate cancer cells by liquid chromatography/mass spectrometry “(LC/MS”) to assess whether prostate cancer cells constitutively produce 5-oxoETE as a survival factor. […] PC3 prostate cancer cells (2 million per plate) were plated in 6 ml RPMI medium in serum-free medium for 24 hours. On the next day cells were treated with 10 micromolar MK591 (a specific 5-LOX inhibitor) for two hours at 37 degree C., or cells were left untreated. The media were collected, eicosanoids extracted, and measured by LC/MS.
# [2] = test system: PC3 cells; experiment: Killing of PC3 cells by 5-LOX inhibitor; format: cell-based, human; details: 10 micromolar
# [3] = test system: prostate cancer cells; details: exogenous metabolite, previous work [7, 8, 17]; cited from earlier work
SMILES,eicosanoids (5-oxoETE) in serum-free culture medium [1] [picograms per ml],killing of PC3 cells [2],prevention of apoptosis triggered by 5-LOX inhibition [3]
CC(C)(C)Sc1c(CC(C)(C)C(=O)O)n(Cc2ccc(Cl)cc2)c2ccc(OCc3ccc4ccccc4n3)cc12 [MK591],0,kills PC3 cells,–
"CCCCC/C=C\C/C=C\C/C=C\C=C\C(=O)CCCC(=O)O [5-oxoETE, 5-oxoeicosatetraenoic acid]",–,–,prevented; also recorded: more effective
"CCCCC/C=C\C/C=C\C/C=C\C=C\[C@@H](O)CCCC(=O)O [5-HETE, 5(S)-hydroxyeicosatetraenoic acid]",–,–,prevented
